In brackets after ≈: the same amount, converted by molar mass. Like-named read-outs stand apart in the source and are kept apart here.
Assays:
[1] = system: Staphylococcus aureus NCTC 13373 (mecA-positive; methicillin-resistant); assay: In vitro antibacterial activity, MIC (UCL School of Pharmacy assay), MRSA; type: cell-based; details: for MIC: Staphylococcus aureus
Method: (§1) Staphylococcus aureus NCTC 13373 (mecA-positive; methicillin-resistant, NCTC 13373) was supplied by the National Collection of Type Cultures (NCTC), Public Health England, United Kingdom. Other organisms, S. aureus ATCC 25923 (methicillin-susceptible) and Enterococcus faecalis ATCC 51299 (vanA-positive; vancomycin-resistant), were obtained from the American Type Culture Collection (ATCC) via LGC Standards, UK. A suspension of each organism was prepared from an overnight plate culture (tryptone soya agar) in phosphate-buffered saline (PBS) and adjusted to an absorbance reading at 600 nm of 0.1, which is approximately equivalent to 1 × 10^8 colony-forming units (CFU) per mL. The cultures were further diluted 1:100 in isosensitest broth (Oxoid, United Kingdom) before 100 μL was used to inoculate each well of a 96-well plate that contained diluted samples of the OSA series. Compounds were evaluated over a 2-fold dilution range from 32 to 0.03 μg/mL. Stocks of the samples were prepared in 100% DMSO at […] before being diluted in isosenstitest broth. The highest concentration of DMSO present was 2%, which has been previously shown not to inhibit the growth of the microorganisms (data not shown). […] Vancomycin was used as a quality control compound.

[2] = system: S. aureus ATCC 25923 (methicillin-susceptible); assay: In vitro antibacterial activity, MIC (UCL), MSSA; type: cell-based, Staphylococcus aureus; details: for MIC: Staphylococcus aureus
Method: as §1

[3] = UCL assay, read-out: MRSA MIC (ug/mL) (UCL)
[4] = UCL assay, read-out: MSSA MIC (ug/mL) (UCL)

Compound: CC(C)CN(c1ccc(F)cc1)c1c(-c2ccccn2)nc2cnccn12 [OSA_001035]
- MIC [1, 3]: > 32 µg/mL
- MIC [2, 4]: > 32 µg/mL

Compound: c1ccc(-c2nc3n(c2-c2ccc4sc5ccccc5c4c2)CCC3)nc1 [compound 831]
- MIC ([1]; read-out: MRSA MIC): 8 µg/mL (≈ 21.8 µM)

Compound: N#Cc1ccc(C(=O)Nc2c(-c3ccccn3)nc3ccccn23)cc1 [compound 1016]
- MIC ([1]; read-out: MRSA MIC): > 32 µg/mL
- MIC ([2]; read-out: MSSA MIC): > 32 µg/mL

Compound: Cc1ccc(-c2c(-c3ccccn3)nc3cc(N4CCNCC4)ccn23)cc1 [compound 1014]
- MRSA MIC [1]: > 32 µg/mL
- MSSA MIC [2]: > 32 µg/mL

Compound: CC(C)CN(c1ccc(F)cc1)c1c(-c2ccccn2)nc2ncccn12 [compound 1038]
- MIC ([1]; read-out: MRSA MIC): 6 µg/mL (≈ 16.6 µM)
- MIC ([2]; read-out: MSSA MIC): 8 µg/mL (≈ 22.1 µM)

Compound: CC(C)CN(c1ccc(F)cc1)c1c(-c2ccccn2)nc2cccnn12 [compound 1036]
- MIC ([1]; read-out: MRSA MIC): 32 µg/mL (≈ 88.5 µM)
- MIC ([2]; read-out: MSSA MIC): 32 µg/mL (≈ 88.5 µM)

Compound: c1ccc(-c2nc3n(c2-c2ccc4c(c2)OCO4)CCCC3)nc1 [compound 818]
- MRSA MIC [1]: 16 µg/mL

Compound: N#Cc1ccc(-c2c(-c3ncccn3)nc3ccccn23)cc1 [OSA_001107]
- MIC [1, 3]: > 32 µg/mL
- MIC [2, 4]: > 32 µg/mL

Compound: c1ccc(-c2nc3n(c2-c2ccc4ccoc4c2)CCC3)nc1 [compound 829]
- MIC ([1]; read-out: MRSA MIC): 4 µg/mL (≈ 13.3 µM)

Compound: c1ccc(-c2nc3n(c2-c2ccc4scnc4c2)CCC3)nc1 [OSA_000835]
- MIC ([1]; UCL, read-out: MRSA MIC (UCL)): 32 µg/mL (≈ 101 µM)

Compound: CCN(CC)c1ccc(-c2c(-c3ccccn3)nc3ccccn23)cc1 [compound 1011]
- MIC ([1]; read-out: MRSA MIC): 4 µg/mL (≈ 11.7 µM)
- MIC ([2]; read-out: MSSA MIC): 4 µg/mL (≈ 11.7 µM)

Compound: c1ccc(-c2nc3n(c2-c2ccc4c(c2)OCC4)CCC3)nc1 [compound 828]
- activity against MRSA, in words [1]: ineffective
- MIC ([1]; read-out: MRSA MIC): 32 µg/mL (≈ 105 µM)

Compound: c1ccc(-c2nc3n(c2-c2ccc4c(c2)CCO4)CCC3)nc1 [compound 827]
- activity against MRSA, in words [1]: ineffective
- MIC ([1]; read-out: MRSA MIC): 32 µg/mL (≈ 105 µM)

Compound: N#Cc1ccc(-c2c(-c3ccccn3)nc3ncccn23)cc1 [compound 1105]
- MRSA MIC [1]: > 32 µg/mL
- MSSA MIC [2]: > 32 µg/mL

Compound: CC(C)CN(c1ccc(F)cc1)c1c(-c2ccccn2)nc2ccc(F)cn12 [compound 1024]
- MRSA MIC [1]: 8 µg/mL
- MSSA MIC [2]: 8 µg/mL

Compound: N#Cc1ccc(-c2c(-c3ncccn3)nc3ccccn23)cc1 [compound 1107]
- MRSA MIC [1]: > 32 µg/mL
- MSSA MIC [2]: > 32 µg/mL

Compound: Fc1ccc(Nc2c(-c3nccs3)nc3ccccn23)cc1 [OSA_001008]
- MIC ([1]; UCL, read-out: MRSA MIC (UCL)): > 32 µg/mL
- MIC ([2]; read-out: MSSA MIC (UCL)): > 32 µg/mL

Compound: CC(C)CN(c1ccc(F)cc1)c1c(-c2ccccn2)nc2cccnn12 [OSA_001036]
- MIC [1, 3]: 32 µg/mL (≈ 88.5 µM)
- MIC [2, 4]: 32 µg/mL (≈ 88.5 µM)

Compound: COc1ccnc(-c2nc3ccccn3c2N(C)c2ccc(F)cc2)c1 [compound 1007]
- MRSA MIC [1]: 8 µg/mL
- MSSA MIC [2]: 8 µg/mL

Compound: Cc1ccc(-c2c(-c3ccccn3)nc3cc(C#N)ccn23)cc1 [OSA_001013]
- MIC ([1]; UCL, read-out: MRSA MIC (UCL)): > 32 µg/mL
- MIC ([2]; read-out: MSSA MIC (UCL)): > 32 µg/mL

Compound: CC(C)CN(Cc1c(-c2ccccn2)nc2ccccn12)c1ccc(F)cc1 [compound 1040]
- MIC ([1]; read-out: MRSA MIC): 32 µg/mL (≈ 85.5 µM)
- MIC ([2]; read-out: MSSA MIC): > 32 µg/mL

Compound: N#Cc1ccc(-c2c(-c3ccccn3)nc3ncccn23)cc1 [OSA_001105]
- MIC [1, 3]: > 32 µg/mL
- MIC [2, 4]: > 32 µg/mL

Compound: N#Cc1ccc(-c2c(-c3ccccn3)nc3cnccn23)cc1 [OSA_001106]
- MIC [1, 3]: > 32 µg/mL
- MIC [2, 4]: > 32 µg/mL

Compound: COc1ccc(-c2nc3ccccn3c2Nc2ccc(F)cc2)nc1 [compound 1022]
- MIC ([1]; read-out: MRSA MIC): 8 µg/mL (≈ 23.9 µM)
- MIC ([2]; read-out: MSSA MIC): 8 µg/mL (≈ 23.9 µM)

Compound: c1ccc(-c2nc3n(c2-c2ccc4cccnc4c2)CCC3)nc1 [compound 833]
- activity against MRSA, in words [1]: ineffective
- MIC ([1]; read-out: MRSA MIC): > 32 µg/mL

Compound: Cc1ccc(C(=O)Nc2c(-c3ccccn3)nc3ccccn23)cc1 [OSA_001017]
- MIC ([1]; UCL, read-out: MRSA MIC (UCL)): > 32 µg/mL
- MIC ([2]; read-out: MSSA MIC (UCL)): > 32 µg/mL

Compound: Cc1ccc(-c2c(-c3ccccn3)nc3cc(C#N)ccn23)cc1 [compound 1013]
- MRSA MIC [1]: > 32 µg/mL
- MSSA MIC [2]: > 32 µg/mL

Compound: COc1ccc(-c2nc3ccccn3c2N(CC(C)C)c2ccc(F)cc2)nc1 [compound 1034]
- MRSA MIC [1]: 8 µg/mL

From paper PMC10714399, “Open Source Antibiotics: Simple Diarylimidazoles Are Potent against Methicillin-Resistant Staphylococcus aureus” (ACS Infectious Diseases, 2023)
